Results on 2 compounds are retold here after patent US20190282569A1, “STABLE PHARMACEUTICAL COMPOSITION” (ASTELLAS PHARMA INC., priority 2016, published 2019).

For data set [1], the system named is epidermal growth factor receptor (EGFR) mutant kinase. The following applies: disclosed in Patent literature 1 (WO 2013/108754); cited from earlier work.
Data set [2] can be described thus: Stability of the drug substance itself. The following applies: drug substance alone, without pharmaceutical additives. It counts as physicochemical.

For `C=CC(=O)N1CC[C@@H](Oc2nc(Nc3ccc(N4CCC(N5CCN(C)CC5)CC4)cc3)c(C(N)=O)nc2CC)C1` [compound A, 5-{[(3R)-1-Acryloylpyrrolidin-3-yl]oxy}-6-ethyl-3-({4-[4-(4-methylpiperazin-1-yl)piperidin-1-yl]phenyl}amino)-pyrazine-2-carboxamide], in data set [1], the “inhibitory action on an epidermal growth factor receptor (EGFR) mutant kinase” value was “confirmed”. With `C=CC(=O)N1CC[C@@H](Oc2nc(Nc3ccc(N4CCC(N5CCN(C)CC5)CC4)cc3)c(C(N)=O)nc2CC)C1.CS(=O)(=O)O` [compound A monomethanesulfonate, 5-{[(3R)-1-acryloylpyrrolidin-3-yl]oxy}-6-ethyl-3-({4-[4-(4-methylpiperazin-1-yl)piperidin-1-yl]phenyl}amino)-pyrazine-2-carboxamide monomethanesulfonate], the “stability of the drug itself (in words)” value in data set [2] is given as “stable”.
